What was measured:
[1] = molecular target: Calcium/calmodulin-dependent protein kinase type II subunit delta (Homo sapiens) (UniProt Q13557); conditions: Compound concentration 1000.0 nM
[2] = molecular target: Tyrosine-protein kinase TXK (Homo sapiens) (UniProt P42681); conditions: Compound concentration 1000.0 nM
[3] = molecular target: Cyclin-dependent kinase 19 (Homo sapiens) (UniProt Q9BWU1); conditions: Compound concentration 1000.0 nM
[4] = molecular target: Eukaryotic translation initiation factor 2-alpha kinase 1 (Homo sapiens) (UniProt Q9BQI3); conditions: Compound concentration 1000.0 nM
[5] = molecular target: Cyclin-dependent kinase-like 5 (Homo sapiens) (UniProt O76039); conditions: Compound concentration 1000.0 nM
[6] = molecular target: Tyrosine-protein kinase JAK3 (Homo sapiens) (UniProt P52333); conditions: Compound concentration 1000.0 nM
[7] = molecular target: Dual specificity mitogen-activated protein kinase kinase 1 (Homo sapiens) (UniProt Q02750); conditions: Compound concentration 1000.0 nM
[8] = molecular target: Receptor-type tyrosine-protein kinase FLT3 (Homo sapiens) (UniProt P36888); conditions: Compound concentration 1000.0 nM
[9] = molecular target: Serine/threonine-protein kinase TBK1 (Homo sapiens) (UniProt Q9UHD2); conditions: Compound concentration 1000.0 nM
[10] = molecular target: Serine/threonine-protein kinase 38 (Homo sapiens) (UniProt Q15208); conditions: Compound concentration 1000.0 nM
[11] = molecular target: Tyrosine-protein kinase Yes (Homo sapiens) (UniProt P07947); conditions: Compound concentration 1000.0 nM
[12] = molecular target: Phosphatidylinositol 5-phosphate 4-kinase type-2 beta (Homo sapiens) (UniProt P78356); conditions: Compound concentration 1000.0 nM
[13] = molecular target: Ephrin type-A receptor 7 (Homo sapiens) (UniProt Q15375); conditions: Compound concentration 1000.0 nM
[14] = test system: ALK tyrosine kinase receptor (Homo sapiens), Q9UM73 [L1196M]; conditions: Compound concentration 1000.0 nM
[15] = molecular target: Cyclin-dependent kinase 5 (Homo sapiens) (UniProt Q00535); conditions: Compound concentration 1000.0 nM
[16] = molecular target: Mitogen-activated protein kinase kinase kinase 4 (Homo sapiens) (UniProt Q9Y6R4); conditions: Compound concentration 1000.0 nM
[17] = molecular target: 5-hydroxytryptamine receptor 6 (Homo sapiens) (UniProt P50406); conditions: Compound concentration 10.0 uM
[18] = molecular target: Myotonin-protein kinase (Homo sapiens) (UniProt Q09013); conditions: Compound concentration 1000.0 nM
[19] = molecular target: Phosphorylase b kinase gamma catalytic chain, skeletal muscle/heart isoform (Homo sapiens) (UniProt Q16816); conditions: Compound concentration 1000.0 nM
[20] = molecular target: Casein kinase I isoform alpha-like (Homo sapiens) (UniProt Q8N752); conditions: Compound concentration 1000.0 nM
[21] = molecular target: Serine/threonine-protein kinase Nek7 (Homo sapiens) (UniProt Q8TDX7); conditions: Compound concentration 1000.0 nM
[22] = test system: Mast/stem cell growth factor receptor Kit (Homo sapiens), P10721 [L576P]; conditions: Compound concentration 1000.0 nM
[23] = molecular target: T1, Muscarinic acetylcholine receptor M4 (Homo sapiens) (UniProt P08173); conditions: Compound concentration 10.0 uM
T1 sequence (whole entry): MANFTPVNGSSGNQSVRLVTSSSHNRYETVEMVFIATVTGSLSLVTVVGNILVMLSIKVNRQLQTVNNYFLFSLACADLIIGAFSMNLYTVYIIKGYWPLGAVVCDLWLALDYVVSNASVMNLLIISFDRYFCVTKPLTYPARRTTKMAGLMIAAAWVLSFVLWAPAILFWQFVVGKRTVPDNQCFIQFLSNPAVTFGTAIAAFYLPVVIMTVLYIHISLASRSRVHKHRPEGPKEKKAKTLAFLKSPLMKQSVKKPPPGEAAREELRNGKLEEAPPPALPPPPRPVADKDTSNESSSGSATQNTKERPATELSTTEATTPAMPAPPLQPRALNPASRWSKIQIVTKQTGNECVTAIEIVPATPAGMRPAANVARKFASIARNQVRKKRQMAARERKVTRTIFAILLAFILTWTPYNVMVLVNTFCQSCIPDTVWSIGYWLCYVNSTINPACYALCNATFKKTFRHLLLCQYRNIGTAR

[24] = test system: Proto-oncogene tyrosine-protein kinase receptor Ret (Homo sapiens), P07949 [M918T]; conditions: Compound concentration 1000.0 nM
[25] = molecular target: Serine/threonine-protein kinase N1 (Homo sapiens) (UniProt Q16512); conditions: Compound concentration 1000.0 nM
[26] = molecular target: Microtubule-associated serine/threonine-protein kinase 1 (Homo sapiens) (UniProt Q9Y2H9); conditions: Compound concentration 1000.0 nM
[27] = molecular target: Ribosomal protein S6 kinase alpha-5 (Homo sapiens) (UniProt O75582); conditions: Compound concentration 1000.0 nM
[28] = molecular target: Mitogen-activated protein kinase 12 (Homo sapiens) (UniProt P53778); conditions: Compound concentration 1000.0 nM
[29] = molecular target: Receptor-interacting serine/threonine-protein kinase 4 (Homo sapiens) (UniProt P57078); conditions: Compound concentration 1000.0 nM
[30] = molecular target: Casein kinase I isoform delta (Homo sapiens) (UniProt P48730); conditions: Compound concentration 1000.0 nM
[31] = test system: Phosphatidylinositol 4,5-bisphosphate 3-kinase catalytic subunit alpha isoform (Homo sapiens), P42336 [E545K]; conditions: Compound concentration 1000.0 nM
[32] = molecular target: LIM domain kinase 1 (Homo sapiens) (UniProt P53667); conditions: Compound concentration 1000.0 nM
[33] = molecular target: NUAK family SNF1-like kinase 2 (Homo sapiens) (UniProt Q9H093); conditions: Compound concentration 1000.0 nM
[34] = test system: Epidermal growth factor receptor (Homo sapiens), P00533 [L861Q]; conditions: Compound concentration 1000.0 nM
[35] = test system: Tyrosine-protein kinase ABL1 (Homo sapiens), P00519 [T315I]; conditions: Compound concentration 1000.0 nM
[36] = molecular target: Serine/threonine-protein kinase 32C (Homo sapiens) (UniProt Q86UX6); conditions: Compound concentration 1000.0 nM
[37] = molecular target: Dual specificity mitogen-activated protein kinase kinase 3 (Homo sapiens) (UniProt P46734); conditions: Compound concentration 1000.0 nM
[38] = test system: Hepatocyte growth factor receptor (Homo sapiens), P08581 [Y1235D]; conditions: Compound concentration 1000.0 nM

Chain of Cyclin-dependent kinase 19 (Homo sapiens) (Q9BWU1 whole entry): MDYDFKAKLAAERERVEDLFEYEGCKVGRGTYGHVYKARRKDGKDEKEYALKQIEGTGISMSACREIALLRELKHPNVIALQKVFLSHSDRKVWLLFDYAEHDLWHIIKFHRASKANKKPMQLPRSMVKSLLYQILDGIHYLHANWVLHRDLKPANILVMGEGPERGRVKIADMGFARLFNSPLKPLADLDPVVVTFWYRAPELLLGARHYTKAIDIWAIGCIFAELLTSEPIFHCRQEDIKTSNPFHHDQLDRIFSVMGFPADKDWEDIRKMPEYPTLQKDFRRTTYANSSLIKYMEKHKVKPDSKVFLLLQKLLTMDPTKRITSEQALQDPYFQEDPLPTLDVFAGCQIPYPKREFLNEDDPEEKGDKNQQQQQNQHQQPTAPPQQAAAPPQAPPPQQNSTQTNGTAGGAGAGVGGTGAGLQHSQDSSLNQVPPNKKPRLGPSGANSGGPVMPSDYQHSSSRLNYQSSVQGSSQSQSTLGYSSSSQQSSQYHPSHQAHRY
Chain of Ephrin type-A receptor 7 (Homo sapiens) (Q15375 28-998 limits assumed): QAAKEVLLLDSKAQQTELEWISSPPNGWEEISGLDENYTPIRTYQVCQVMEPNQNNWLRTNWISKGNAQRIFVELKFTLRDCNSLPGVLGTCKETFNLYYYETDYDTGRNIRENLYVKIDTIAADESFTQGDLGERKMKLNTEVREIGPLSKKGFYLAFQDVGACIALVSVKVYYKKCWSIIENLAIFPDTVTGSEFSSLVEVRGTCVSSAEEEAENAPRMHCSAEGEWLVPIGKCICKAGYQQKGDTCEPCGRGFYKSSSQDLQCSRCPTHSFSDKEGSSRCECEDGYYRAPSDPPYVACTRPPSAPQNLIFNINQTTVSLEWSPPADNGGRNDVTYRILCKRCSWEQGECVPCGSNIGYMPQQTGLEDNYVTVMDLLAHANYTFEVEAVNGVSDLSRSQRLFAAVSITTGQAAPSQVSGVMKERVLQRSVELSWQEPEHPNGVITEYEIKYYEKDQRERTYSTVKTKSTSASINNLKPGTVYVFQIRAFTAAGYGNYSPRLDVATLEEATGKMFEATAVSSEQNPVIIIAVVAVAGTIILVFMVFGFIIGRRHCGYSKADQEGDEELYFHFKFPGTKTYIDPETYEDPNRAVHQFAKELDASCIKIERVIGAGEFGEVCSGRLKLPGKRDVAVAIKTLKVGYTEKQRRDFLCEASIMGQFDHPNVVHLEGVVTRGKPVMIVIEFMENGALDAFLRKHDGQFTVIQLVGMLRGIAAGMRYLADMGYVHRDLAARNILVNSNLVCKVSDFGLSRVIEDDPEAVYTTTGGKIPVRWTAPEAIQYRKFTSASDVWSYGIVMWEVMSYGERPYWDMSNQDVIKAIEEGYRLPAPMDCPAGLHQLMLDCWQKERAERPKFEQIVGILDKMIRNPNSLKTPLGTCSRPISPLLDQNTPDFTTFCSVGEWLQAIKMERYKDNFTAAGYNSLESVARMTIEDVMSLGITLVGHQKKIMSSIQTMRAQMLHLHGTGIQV
Chain of Tyrosine-protein kinase Yes (Homo sapiens) (P07947 2-543 limits assumed): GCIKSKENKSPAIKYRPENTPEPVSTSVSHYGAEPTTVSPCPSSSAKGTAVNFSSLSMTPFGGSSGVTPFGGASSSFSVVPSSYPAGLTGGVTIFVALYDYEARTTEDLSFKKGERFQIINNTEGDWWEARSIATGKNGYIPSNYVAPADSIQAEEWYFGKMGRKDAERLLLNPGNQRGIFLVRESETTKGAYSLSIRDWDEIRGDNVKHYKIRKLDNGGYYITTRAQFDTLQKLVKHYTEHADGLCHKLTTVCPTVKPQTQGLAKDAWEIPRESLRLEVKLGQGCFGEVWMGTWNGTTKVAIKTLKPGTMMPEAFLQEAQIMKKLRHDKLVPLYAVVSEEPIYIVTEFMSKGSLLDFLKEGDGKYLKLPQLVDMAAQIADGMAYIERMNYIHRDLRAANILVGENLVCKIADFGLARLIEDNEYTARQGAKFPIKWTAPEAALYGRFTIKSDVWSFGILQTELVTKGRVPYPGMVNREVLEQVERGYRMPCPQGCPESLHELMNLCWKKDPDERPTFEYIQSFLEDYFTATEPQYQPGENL
Chain of Receptor-type tyrosine-protein kinase FLT3 (Homo sapiens) (P36888 whole entry): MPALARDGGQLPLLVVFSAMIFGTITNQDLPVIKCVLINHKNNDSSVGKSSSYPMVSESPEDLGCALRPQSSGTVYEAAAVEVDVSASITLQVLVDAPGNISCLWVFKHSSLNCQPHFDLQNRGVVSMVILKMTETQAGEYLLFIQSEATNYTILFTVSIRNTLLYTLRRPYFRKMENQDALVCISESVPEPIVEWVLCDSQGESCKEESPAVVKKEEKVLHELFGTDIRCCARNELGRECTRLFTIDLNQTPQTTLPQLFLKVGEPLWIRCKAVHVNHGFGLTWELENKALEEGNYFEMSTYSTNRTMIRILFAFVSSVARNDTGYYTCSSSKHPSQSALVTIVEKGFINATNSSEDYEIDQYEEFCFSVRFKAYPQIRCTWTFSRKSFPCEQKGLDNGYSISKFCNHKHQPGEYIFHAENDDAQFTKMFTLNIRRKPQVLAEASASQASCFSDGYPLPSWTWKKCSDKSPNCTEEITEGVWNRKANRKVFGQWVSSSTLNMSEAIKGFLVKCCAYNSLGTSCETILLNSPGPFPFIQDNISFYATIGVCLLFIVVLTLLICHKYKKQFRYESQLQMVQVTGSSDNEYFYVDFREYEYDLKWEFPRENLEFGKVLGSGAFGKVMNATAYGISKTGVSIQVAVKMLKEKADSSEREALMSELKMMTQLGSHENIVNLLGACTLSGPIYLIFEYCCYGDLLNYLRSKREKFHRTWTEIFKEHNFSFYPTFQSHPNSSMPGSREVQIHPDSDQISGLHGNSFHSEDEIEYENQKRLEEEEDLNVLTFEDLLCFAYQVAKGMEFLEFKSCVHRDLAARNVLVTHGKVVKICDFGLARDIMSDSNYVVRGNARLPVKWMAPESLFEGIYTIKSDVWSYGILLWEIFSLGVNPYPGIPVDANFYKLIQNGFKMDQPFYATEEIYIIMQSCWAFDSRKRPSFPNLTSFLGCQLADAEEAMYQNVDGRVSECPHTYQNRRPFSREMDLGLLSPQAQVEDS
Chain of Casein kinase I isoform alpha-like (Homo sapiens) (Q8N752 whole entry, canonical isoform): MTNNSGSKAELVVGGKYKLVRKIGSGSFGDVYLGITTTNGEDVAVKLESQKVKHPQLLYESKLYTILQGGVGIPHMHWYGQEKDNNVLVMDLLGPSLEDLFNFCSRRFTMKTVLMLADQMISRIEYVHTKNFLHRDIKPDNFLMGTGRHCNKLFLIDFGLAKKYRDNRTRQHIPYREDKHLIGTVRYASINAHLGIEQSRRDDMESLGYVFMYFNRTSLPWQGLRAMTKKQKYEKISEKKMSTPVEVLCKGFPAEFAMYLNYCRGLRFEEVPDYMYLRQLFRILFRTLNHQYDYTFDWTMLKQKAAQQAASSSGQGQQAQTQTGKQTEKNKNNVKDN
Chain of Serine/threonine-protein kinase TBK1 (Homo sapiens) (Q9UHD2 whole entry): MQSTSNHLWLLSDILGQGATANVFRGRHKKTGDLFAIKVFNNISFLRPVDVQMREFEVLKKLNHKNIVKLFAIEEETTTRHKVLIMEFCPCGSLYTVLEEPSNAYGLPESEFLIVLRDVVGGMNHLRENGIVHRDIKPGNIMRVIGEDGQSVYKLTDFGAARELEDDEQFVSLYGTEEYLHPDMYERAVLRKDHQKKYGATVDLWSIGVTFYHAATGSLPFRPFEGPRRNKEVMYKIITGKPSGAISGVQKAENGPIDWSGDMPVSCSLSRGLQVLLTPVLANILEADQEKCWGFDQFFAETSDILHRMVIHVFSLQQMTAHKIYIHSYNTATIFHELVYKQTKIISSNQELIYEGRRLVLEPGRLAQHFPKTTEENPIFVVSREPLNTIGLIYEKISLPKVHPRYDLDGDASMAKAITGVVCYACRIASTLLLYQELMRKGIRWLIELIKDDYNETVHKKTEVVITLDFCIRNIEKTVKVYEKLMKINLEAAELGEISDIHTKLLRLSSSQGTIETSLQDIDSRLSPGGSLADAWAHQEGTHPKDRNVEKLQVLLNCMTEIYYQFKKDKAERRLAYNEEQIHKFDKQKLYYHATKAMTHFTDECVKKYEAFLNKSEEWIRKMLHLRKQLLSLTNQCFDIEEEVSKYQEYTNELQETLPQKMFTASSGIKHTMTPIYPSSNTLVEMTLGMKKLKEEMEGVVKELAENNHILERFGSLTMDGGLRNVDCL
Chain of Serine/threonine-protein kinase N1 (Homo sapiens) (Q16512 2-942 limits assumed): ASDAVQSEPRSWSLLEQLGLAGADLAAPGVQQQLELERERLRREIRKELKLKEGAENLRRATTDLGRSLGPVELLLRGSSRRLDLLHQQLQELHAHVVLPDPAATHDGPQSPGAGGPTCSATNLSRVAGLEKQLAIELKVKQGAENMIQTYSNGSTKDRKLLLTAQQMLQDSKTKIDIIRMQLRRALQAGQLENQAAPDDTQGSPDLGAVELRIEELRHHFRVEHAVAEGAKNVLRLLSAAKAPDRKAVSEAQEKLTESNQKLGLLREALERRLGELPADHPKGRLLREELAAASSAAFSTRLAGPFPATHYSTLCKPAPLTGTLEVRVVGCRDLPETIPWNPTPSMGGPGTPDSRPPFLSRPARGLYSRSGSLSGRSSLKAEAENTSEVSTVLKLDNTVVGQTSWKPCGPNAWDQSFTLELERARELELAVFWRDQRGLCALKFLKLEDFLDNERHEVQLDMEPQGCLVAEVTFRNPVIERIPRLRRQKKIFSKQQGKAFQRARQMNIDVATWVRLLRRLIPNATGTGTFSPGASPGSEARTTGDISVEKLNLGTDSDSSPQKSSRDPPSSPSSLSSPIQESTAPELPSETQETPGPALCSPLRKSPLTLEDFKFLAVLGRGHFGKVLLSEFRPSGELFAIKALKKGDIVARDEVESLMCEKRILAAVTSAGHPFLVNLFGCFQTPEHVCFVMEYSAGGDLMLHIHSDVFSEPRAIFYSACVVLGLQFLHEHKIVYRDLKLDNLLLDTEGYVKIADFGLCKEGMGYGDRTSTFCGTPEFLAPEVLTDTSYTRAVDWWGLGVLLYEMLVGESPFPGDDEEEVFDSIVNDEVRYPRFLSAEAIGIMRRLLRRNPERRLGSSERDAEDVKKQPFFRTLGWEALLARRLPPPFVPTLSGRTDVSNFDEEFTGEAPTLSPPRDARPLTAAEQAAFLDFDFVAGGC

CCC(=N\O)/C(C)=C/c1ccc(F)cc1 [A-079]
inactive: residual activity [1] 99% | residual activity [2] 81% | residual activity [3] 79% | residual activity [4] 100% | residual activity [5] 82% | residual activity [6] 80% | residual activity [7] 95% | residual activity [8] 86% | residual activity [9] 75% | residual activity [10] 94% | residual activity [11] 87% | residual activity [12] 91% | residual activity [13] 86% | residual activity [14] 71% | residual activity [15] 68% | residual activity [16] 99% | inhibition [17] 15.6% | residual activity [18] 88% | residual activity [19] 100% | residual activity [20] 78% | residual activity [21] 85% | residual activity [22] 100% | inhibition [23] 18.2% | residual activity [24] 100% | residual activity [25] 100% | residual activity [26] 71% | residual activity [27] 100% | residual activity [28] 100% | residual activity [29] 83% | residual activity [30] 81% | residual activity [31] 100% | residual activity [32] 78% | residual activity [33] 73% | residual activity [34] 60% | residual activity [35] 75% | residual activity [36] 65% | residual activity [37] 94% | residual activity [38] 85%

CCC(=N\O)/C(C)=C/c1ccc(F)c(C)c1 [A-226]
inactive: residual activity [1] 100% | residual activity [2] 73% | residual activity [3] 100% | residual activity [4] 100% | residual activity [5] 100% | residual activity [6] 94% | residual activity [7] 95% | residual activity [8] 100% | residual activity [9] 93% | residual activity [10] 95% | residual activity [11] 100% | residual activity [12] 74% | residual activity [13] 92% | residual activity [14] 100% | residual activity [15] 86% | residual activity [16] 72% | inhibition [17] -3.93% | residual activity [18] 72% | residual activity [19] 100% | residual activity [20] 83% | residual activity [21] 100% | residual activity [22] 94% | inhibition [23] 15.4% | residual activity [24] 92% | residual activity [25] 100% | residual activity [26] 100% | residual activity [27] 78% | residual activity [28] 88% | residual activity [29] 100% | residual activity [30] 92% | residual activity [31] 100% | residual activity [32] 100% | residual activity [33] 100% | residual activity [34] 68% | residual activity [35] 100% | residual activity [36] 100% | residual activity [37] 100% | residual activity [38] 100%

— ChEMBL document CHEMBL4507256 (2021)
